Key:
[1] = Patients after radiation and chemotherapy, L-Glu-L-Trp 100 μg daily 10 days; details: human, in vivo
Experimental: A total of 246 patients were eventually entered into studies after receiving radiation and chemotherapy. L-Glu-L-Trp was administered to the patients in single 100 μg daily dose for each of 10 days during the period of chemotherapy. A control group constituted 158 similar patients (following radiation and chemotherapy), and these patients were treated in a conventional manner (i.e., chemotherapy and support therapy). […] Immune parameters were periodically monitored over the next 4-6 months in the patients and decreased levels of lymphocytes or their subpopulations were used as clinical triggers for additional therapeutic intervention with L-Glu-L-Trp.

influenza [2] = experiment: Influenza prophylaxis: incidence of acute respiratory diseases and influenza illness; type: in vivo, human
Experimental: A group of 452 persons were treated with daily dosages of 100 μg of L-Glu-L-Trp administered im on each of 5-10 consecutive days. A control group consisted of 250 untreated persons. The incidence of diagnosed respiratory diseases and influenza were recorded for both groups over the next four months.

influenza [3] = experiment: Volunteers experimentally infected with influenza (Protocol I); details: human, in vivo
Text: Thirty-four similarly infected volunteers (34) served as untreated controls. […] The hematological and immunological indices examined immediately following the period of treatment were restored to within the normal range.

Staphylococci = experiment: Antibiotic sensitivity (doubling-dilution, MIC-2000) of patient isolates before and after Stage 1; type: cell-based
Experimental: Antibiotics were administered according to established dosages and routes: i.e., penicillin, Ampicillin, oxacillin, tetracycline, erythromycin, garamycin; administered by intramuscular route. Antibiotics were chosen according to the antibiotic sensitivity of the Staphylococci isolated from the respective patients. (Antibiotic sensitivity was determined by testing staphylococcal isolates for their sensitivity in an antibiotic sensitivity doubling-dilution assay with the aid of the semi-automatic MIC-2000 system, Dynatech, USA).
Staphylococci were isolated from patients before and after treatment in Stage 1 with L-Glu-L-Trp in order to determine whether a favorable reversal of T-lymphocyte immunodeficiency might lead to a change in the antibiotic sensitivity. The isolated bacterial colonies following Stage I were typed as follows: namely, in 16 patients S. aureus, in 34, S. epidermidis, in 2 saprophytic Staphylococci. In all cases the same types of Staphylococci were isolated following treatment with L-Glu-L-Trp, but in 4 patients the predominant Staphylococci in the isolates changed from S. aureus to S. epidermidis (n=2), and saprophytic Staphylococci (n=2).
Antibiotic sensitivity of Staphylococci were determined by doubling-dilution methods with the aid of the semiautomatic MIC-2000 system (Dynatech, USA).

[4] = Dental caries: toothpaste containing L-Glu-L-Trp; type: in vivo, human
Experimental: The use of dental toothpaste containing L-Glu-L-Trp will have the secondary effect of reducing incidence and severity of gingival disease. Patients with odontogenic infections and periapical granulomas can be treated with 100 μg of L-Glu-L-Trp instilled into the foramen at the base of the tooth, or alternatively, L-Glu-L-Trp can be compounded in a filling paste which is packed into the base of the tooth.

[5] = Lymphatic infections (lymphangitis); type: in vivo; details: 100 μg im, 1 μg/kg intranasally or intralymphatically
[6] = Drug allergies to antibiotics; set-up: species or system human; details: in vivo
Experimental: L-Glu-L-Trp was administered to 76 patients having clinical histones of allergies to antibiotics, during the period of administration of the antibiotic. A control group consisted of 43 patients with similar antibiotic drug allergies. L-Glu-L-Trp was administered im on a daily basis for 5-10 days at a dosage of 100 μg, or alternatively, intranasally at a dosage of 1 μg/kg over the same 5-10 day period. […] Allergic reactions were pronounced in the control group with signs of drug intolerance.

Dengue virus = experiment: Dengue Protocol B; set-up: species or system human; details: in vivo
Experimental: Sixty Dengue virus infected patients (60) were entered into the trial; 36 were treated with L-Glu-L-Trp and 24 were treated using conventional therapy (i.e., controls).

E-RFC = experiment: In vitro sheep red blood cell rosette forming response of gastritis patients' T-lymphocytes; type: cell-based, human; details: 22 patients
Text: Twenty two patients (all men aged 18-30 years) suffering from chronic primary gastritis and gastro-duodenitis were entered into the trial. Diagnosis was based on physical examination, and clinical and laboratory investigations including roentgenoscopy and endoscopic examination of the stomach and duodenum. Patient entry criteria was further conditioned on the results of laboratory tests for i) pre-treatment immune indices (i.e., numbers of lymphocytes, T-, and B-lymphocytes, etc.; TABLE 46) and ii) the in vitro sheep red blood cell rosette forming response of T-lymphocytes to L-Glu-L-Trp, (i.e., whether in vitro incubation of patient peripheral blood lymphocytes with L-Glu-L-Trp increased the percentage of E-RFC). […] These twelve patients were entered into the trial.

Shigella dysenterae = experiment: Shigella dysentery; set-up: species or system human; details: in vivo
Text: A total 125 patients infected with Shigella dysentery were examined. Fifty-three patients constituted the control group.

[7] = test system: E-receptors on thymocytes; experiment: Expression of E-receptors on trypsin-treated thymocytes (E-RFC); type: cell-based, guinea pigs; details: for E-RFC (%): trypsin-treated thymocytes
Experimental: Thymus cells were isolated from male guinea pigs (180-200 g) under standard conditions of tissue mincing and differential centrifugation in Medium 199. Isolated thymocytes were treated with trypsin to remove cell surface E-receptors capable of binding rabbit erythrocytes (E). The percentage of cells capable forming E-rosettes (E-RFC) was decreased by about two-fold under these conditions.
L-Glu-L-Trp has been reported to restore T-cell receptors and E-RFC following incubation at 37° C. Studies were conducted in which the activity of L-Glu-L-Trp dipeptide were compared in the latter assay.
Thymocytes were prepared from 48 guinea pigs, treated with trypsin, and tested for E-RFC.

influenza [8] = details: vs control group
Experimental: Sixty-six (66) hospitalized patients between the ages 18-20 years with confirmed influenza infections were admitted into the trial. Of the patients, 12 were determined to be severely infected, and the remaining 54 seriously infected and in need of hospitalization.

Substance: L-Glu-L-Trp
- Clinical outcome [1]: decreased incidence and severity of post-operative complications
- Average term of hospitalization (influenza [2]; L-Glu-L-Trp group): 6.2 days
- Incidence of lingering and complicated cases for in-patients, % (influenza [2]; L-Glu-L-Trp group): 9.8%
- Need for hospitalization, % (influenza [2]; L-Glu-L-Trp group): 30.6%
- Number of cases of temporary disablement per 100 persons/month (influenza [2]; L-Glu-L-Trp group): 4.1
- Number of days of temporary disablement per 100 persons/month (influenza [2]; L-Glu-L-Trp group): 26.5
- Overall incidence of lingering and complicated cases, % (influenza [2]; L-Glu-L-Trp group): 3.9%
- Pneumonia rate/100 persons/month (influenza [2]; L-Glu-L-Trp group): 0.20
- Sickness rate per 100 persons/month (influenza [2]; L-Glu-L-Trp group): 9.8
- Average term of hospitalization, Ratio Control/TX (influenza [2]; in vivo): 1.4
- Cases of temporary disablement, Ratio Control/TX (influenza [2]; in vivo): 1.7
- Days of temporary disablement, Ratio Control/TX (influenza [2]; in vivo): 2.2
- Incidence of lingering and complicated cases for in-patients, Ratio Control/TX (influenza [2]; in vivo): 2.7
- Need for hospitalization, Ratio Control/TX (influenza [2]; in vivo): 1.7
- Overall incidence of lingering and complicated cases, Ratio Control/TX (influenza [2]; in vivo): 3.5
- Pneumonia rate, Ratio Control/TX (influenza [2]; in vivo): 2.5
- Sickness rate, Ratio Control/TX (influenza [2]; in vivo): 3.1
- Clinical outcome (influenza [3]): normalization of fever, reduction in toxic symptoms
- Patients with decreased MIC of antibiotic for isolated bacteria (Staphylococci; conclusion of Stage 1): 78%
- Increase in antibiotic sensitivity of isolates (Staphylococci; in certain cases): > 100 fold
- Clinical outcome [4]: reduction of caries
- Clinical outcome [5]: controls the progression of lymphangitis
- Patients in whom development of allergic reactions was prevented [6]: 70%
- Clinical outcome (Dengue virus): reduction of fever, more rapid reduction of toxic symptoms
- Patients with a positive in vitro response (increased E-RFC) (E-RFC): 55%
- Clinical outcome (Shigella dysenterae): normalization of fever, reduction of toxemia
- Percentage of E-RFC ([7]; 0.01-1 mg/mL): increased the percentage of E-RFC in trypsin-treated thymocyte cultures
- E-RFC (%) ([7]; Conc. 0.0001 mg/ml): 30.3 ± 3.1 %
- E-RFC (%) ([7]; Conc. 0.01 mg/ml): 36.8 ± 2.4 %
- E-RFC (%) ([7]; Conc. 1 mg/ml): 42.8 ± 3.5 %
- Lower incidence of respiratory complications (influenza [8]): 3.5 times
